According to patent publication US6649605B2, “Treatment of tension-type headaches with NMDA receptor antagonists” (Head Explorer A/S, priority 1996, dated 2003):
Entries after “also recorded” stand apart in the source; their conditions may differ.

Legend:
[1] = system: trapezius muscle of patients with chronic tension-type headache; assay: Muscle hardness of the trapezius muscle (hardness meter) after L-NMMA; type: in vivo, human; conditions: 6 mg/kg i.v.
Description: (§1) Sixteen patients with a diagnosis of chronic tension-type headache according to the criteria of the International Headache Society (Headache Classification Committee 1988) were included (Table XVII). Five of the patients had coexisting infrequent migraine (<four days/year). The patients were recruited from the out-patient headache clinic at Glostrup University Hospital without respect to presence or absence of myofascial tenderness. All patients underwent a general physical and a neurological examination and completed a diagnostic headache diary during a 4-week run-in period (Russell et al. 1992). […]
Muscle hardness. The muscle hardness of the trapezius muscle was measured with a hardness meter, which has previously been described in detail (Horikawa et al. 1993). […]
(§2) The recordings were performed in a standardized manner by the same observer, a trained technician (HA), throughout the study. All parameters were recorded at baseline, 60 and 120 minutes after start of infusion. […] Headache intensity was measured on a 100 mm Visual Analog Scale (VAS) (0-no headache and 100-worst imaginable headache) before, during and after start of infusion.
Muscle hardness. The muscle hardness was measured at a standard anatomical point on the trapezius muscle On the non-dominant side, as previously described (Ashina et al. 1998b). […] The muscle hardness was calculated as the mean of five consecutive determinations. […]

[2] = system: patients with chronic tension-type headache; assay: Total Tenderness Score of pericranial myofascial tissues after L-NMMA; type: in vivo, human; conditions: 6 mg/kg i.v., hydrochloride
Description: as §1, §2
Total tenderness. […] Tenderness was scored on a 4-point (0-3) scale at each location (local tenderness score) and values from left and right sides were summed to a Total Tenderness Score (TTS) (maximum possible score=48). […]

CN=C(N)NCCC[C@H](N)C(=O)O.Cl [L-NMMA, L-N^G methyl arginine hydrochloride]
Muscle hardness (summary score) compared with placebo ([1]; p=0.04, hydrochloride): significantly more reduced; also recorded: reduces muscle hardness; also recorded: reduced significantly more; also recorded: significantly reduced
Muscle hardness compared with baseline ([1]; p=0.04 and p<0.05): significantly reduced at 60 and 120 minutes
TTS compared with baseline ([2]; p=0.007 and p=0.008): significantly reduced at 60 and 120 minutes; also recorded: significantly), reduced at 60 and 120 minutes
Tenderness score (summary) compared with placebo ([2]; p=0.11): tended to be reduced; also recorded: tended to be reduced more; also recorded: not significant
